Laboratory results reported in patent US20020197233A1, “Methods of treating central nervous system ischemic or hemorrhagic injury using anti alpha4 integrin antagonists” (priority 1999, published 2002).

Tests used:
[1] = system: Sprague Dawley (SD) rats; assay: Reversible middle cerebral artery occlusion (MCAO), infarct volume, Sprague Dawley rats; format: in vivo, rat; details: 300 ng/kg/min continuous subcutaneous infusion, vs vehicle treated controls, 24 h after induction of cerebral ischemia (1 h MCAO)
Experimental: (§1) Male Sprague Dawley (SD) or spontaneously hypertensive rats (SHRS) were anesthetized using isoflurane and the right middle cerebral artery (MCAO) occluded by insertion of a 4-0 nylon monofilament up the internal carotid artery to the origin of the middle cerebral artery (MCA) (Zea Longa et al, 1989 Stroke 20:84). After 1 h the filament was retracted, the ischemic territory reperfused and the animal allowed to recover. After 24 h the rats were sacrificed, at which time brains were removed and analyzed histologically to quantify infarct volume.
(§2) Groups of animals were treated with either vehicle (PBS) or the bradykinin B2 receptor antagonist Hoe 140 (Hoechst) by continuous subcutaneous infusion via osmotic mini-pumps. Primed mini osmotic pumps (Alza Corp.,) were implanted into the subcutaneous space at the scruff of the neck immediately prior to induction of cerebral ischemia. The pumps were loaded to release 300 ng/kg/min Hoe 140 and delivered compound or vehicle at a rate of 8 μl/h.
(§3) In a separate experiment groups of animals were treated with either vehicle (sterile isotonic saline), TA2 (mouse anti rat VLA4: Seikagaku America Inc.) or an isotype control antibody (mouse anti-human LFA3: obtained from Biogen, Inc.). All treatments were administered 24 h before surgery intravenously (2.5 mg/kg or appropriate volume of vehicle)
(§4) Vehicle treated control rats that underwent MCAO sustained extensive lesions throughout cortical and subcortical regions of the brain. The ischemic hemisphere was markedly swollen and significant behavioral deficits were observed (eg. hemiparesis resulting in rotation and limb weakness). Spontaneously hypertensive rats sustained more extensive and reproducible brain infarcts than Sprague Dawley rats subjected to the same surgical procedure. Infarct volumes are expressed as mean values+/−s.e.m. Statistical analysis was performed using an unpaired Students' t-test (* denotes p<0.05, ** denotes p<0.01).

[2] = system: spontaneously hypertensive rats (SHRs); assay: Reversible middle cerebral artery occlusion (MCAO), infarct volume, spontaneously hypertensive rats; format: in vivo, rat; details: 300 ng/kg/min continuous subcutaneous infusion, vs vehicle treated controls, 24 h after induction of cerebral ischemia (1 h MCAO)
Experimental: as §1, §2, §3, §4

## Hoe 140
[1]
  reduction of cortical infarct volume: 93%
  reduction of subcortical infarct volume: 24%
  reduction of total infarct volume: 57%
[2]
  reduction of cortical infarct volume: 43%
  reduction of subcortical infarct volume: 17%
  reduction of total infarct volume: 37%
